Source: ChEMBL document CHEMBL3588744, “Structure-Based Optimization of Naphthyridones into Potent ATAD2 Bromodomain Inhibitors” (J Med Chem, 2015)
Converted amounts (≈) assume the structure as drawn.

Key:
[1] = Distribution coefficient, log D of the compound at pH 7.4 by chromatographic method; format: physicochemical; settings: octanol/water
[2] = biological target: T1, ATPase family AAA domain-containing protein 2 (Homo sapiens, UniProt Q6PL18)
T1 sequence (Q6PL18 whole entry): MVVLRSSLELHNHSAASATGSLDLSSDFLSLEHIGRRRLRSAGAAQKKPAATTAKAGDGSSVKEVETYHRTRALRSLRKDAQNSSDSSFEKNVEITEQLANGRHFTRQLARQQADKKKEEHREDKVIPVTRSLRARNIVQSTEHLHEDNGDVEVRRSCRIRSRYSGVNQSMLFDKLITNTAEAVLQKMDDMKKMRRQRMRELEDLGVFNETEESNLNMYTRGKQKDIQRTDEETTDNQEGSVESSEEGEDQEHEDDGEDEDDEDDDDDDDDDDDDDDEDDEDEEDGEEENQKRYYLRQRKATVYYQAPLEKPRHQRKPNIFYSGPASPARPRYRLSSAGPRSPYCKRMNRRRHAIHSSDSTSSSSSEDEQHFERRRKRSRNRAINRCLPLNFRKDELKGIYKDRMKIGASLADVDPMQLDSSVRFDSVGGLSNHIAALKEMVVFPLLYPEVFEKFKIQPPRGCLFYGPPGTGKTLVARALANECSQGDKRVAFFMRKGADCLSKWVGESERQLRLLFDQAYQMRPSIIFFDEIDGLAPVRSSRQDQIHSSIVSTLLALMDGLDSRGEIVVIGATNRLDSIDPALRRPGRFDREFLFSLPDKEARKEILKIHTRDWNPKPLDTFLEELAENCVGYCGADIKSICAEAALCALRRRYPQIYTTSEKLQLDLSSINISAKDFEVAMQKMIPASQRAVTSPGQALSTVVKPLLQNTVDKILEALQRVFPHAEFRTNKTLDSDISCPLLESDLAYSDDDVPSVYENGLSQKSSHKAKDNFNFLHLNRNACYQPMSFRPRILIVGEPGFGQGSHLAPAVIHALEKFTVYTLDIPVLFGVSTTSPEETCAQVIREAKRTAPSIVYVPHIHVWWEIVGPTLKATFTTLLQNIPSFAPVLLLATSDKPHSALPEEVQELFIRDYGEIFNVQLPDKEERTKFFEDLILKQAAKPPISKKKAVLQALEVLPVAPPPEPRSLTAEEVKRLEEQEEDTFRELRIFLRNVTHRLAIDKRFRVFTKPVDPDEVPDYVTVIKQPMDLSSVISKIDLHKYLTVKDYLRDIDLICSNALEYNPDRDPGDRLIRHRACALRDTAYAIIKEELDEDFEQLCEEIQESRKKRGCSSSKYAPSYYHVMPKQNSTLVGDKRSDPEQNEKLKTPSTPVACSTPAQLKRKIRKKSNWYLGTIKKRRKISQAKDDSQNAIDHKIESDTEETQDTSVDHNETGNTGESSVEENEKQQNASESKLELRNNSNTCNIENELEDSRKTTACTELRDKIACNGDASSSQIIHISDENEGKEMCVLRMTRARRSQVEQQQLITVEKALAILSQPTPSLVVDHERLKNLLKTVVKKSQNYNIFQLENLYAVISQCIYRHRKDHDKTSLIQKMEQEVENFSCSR
Description: Displacement of histone H4 peptide from FLAG-6His-Tev-ATAD2 (981 to 1121) (unknown origin) expressed in Escherichia coli BL21 (DE3) after 30 mins by TR-FRET analysis relative to control

[3] = biological target: Bromodomain-containing protein 4 (Homo sapiens, UniProt O60885, Y390A)
physchem = settings: phosphate buffered saline, pH 7.4, solubility
Description: Solubility of the compound in phosphate buffered saline at pH 7.4 after 1 hr by CLND method

[4] = Permeability across phosphatidyl choline membrane at pH 7.4 after 3 hrs by HPLC with UV detection method; format: ADME; settings: not told, read-out: permeability
[5] = biological target: T1, ATPase family AAA domain-containing protein 2; remark: listed apart in the source

SMILES	chromatographic logD [1]	IC50 [2] [µM]	IC50 [3] [µM]	solubility kinetic at 1 h (physchem) [µM]	Papp at 3 h [4] [×10⁻⁶ cm/s]	IC50 [5] [µM]	logD [1]
Cc1cc2ccnc(N[C@@H]3CCNC[C@H]3OCC3CCCC3)c2[nH]c1=O (racemic)	3.1	7.94	10	≥ 275	–	–	–
Cc1cncc(-c2cnc(N[C@H]3CCNC[C@@H]3OCC3CCCCC3)c3[nH]c(=O)c(C)cc23)c1	4.2	–	–	196 (≈ 90.5 µg/mL)	–	–	–
Cc1cc2ccnc(N[C@@H]3CCNC[C@H]3OC[C@H]3CC[C@H](O)CC3)c2[nH]c1=O (racemic)	0.7	5.01	12.6	≥ 323	–	–	–
Cc1cc2ccnc(N[C@@H]3CCNC[C@H]3OCC(C)C)c2[nH]c1=O (racemic)	2.3	–	6.31	≥ 290	–	–	–
Cc1cc2ccnc(N[C@@H]3CCNC[C@H]3OCC3CCCCCC3)c2[nH]c1=O (racemic)	4	2	5.01	≥ 316	–	–	–
Cc1cc2ccnc(N[C@@H]3CCNC[C@H]3OC(C)C)c2[nH]c1=O (racemic)	1.8	63.1	25.1	207 (≈ 65.5 µg/mL)	–	–	–
Cc1cc2ccnc(N[C@@H]3CCNC[C@H]3OCC3CCCCC3)c2[nH]c1=O (racemic)	3.3	–	5.01	285 (≈ 106 µg/mL)	–	–	–
Cc1cncc(-c2ccc(N[C@@H]3CCNC[C@H]3OCC3CCS(=O)(=O)CC3)c3[nH]c(=O)c(C)cc23)c1 (racemic)	–	–	–	217 (≈ 111 µg/mL)	< 0.3	–	–
CCc1cc2c(-c3cncc(C)c3)cnc(N[C@@H]3CCNC[C@H]3OCC3CCS(=O)(=O)CC3)c2[nH]c1=O	–	0.0794	10	323 (≈ 170 µg/mL)	< 0.3	0.0501	–
Cc1cc2c(-c3cncnc3)cnc(N[C@@H]3CCNC[C@H]3OCC3CCOCC3)c2[nH]c1=O	–	1	50.1	≥ 414	< 0.3	0.794	–
COc1cncc(-c2cnc(N[C@@H]3CCNC[C@H]3OCC3CCOCC3)c3[nH]c(=O)c(C)cc23)c1	–	0.251	7.94	≥ 418	3.35	0.316	–
COc1cncc(-c2cnc(N[C@@H]3CCNC[C@H]3OCC3CCS(=O)(=O)CC3)c3[nH]c(=O)c(C)cc23)c1	–	0.126	7.94	≥ 269	< 0.3	0.1	–
Cc1cc2ccnc(N[C@H]3CCNC[C@@H]3OCC3CCOCC3)c2[nH]c1=O	1.5	–	12.6	≥ 352	–	–	–
Cc1cc2ccnc(N[C@@H]3CCNC[C@H]3OCC3CCCCC3)c2[nH]c1=O	–	–	3.98	–	13	–	–
Cc1cncc(-c2cnc(N[C@@H]3CCNC[C@H]3OC[C@H]3C[C@@H](C)S(=O)(=O)[C@@H](C)C3)c3[nH]c(=O)c(C)cc23)c1	–	0.1	25.1	30 (≈ 16.2 µg/mL)	< 0.3	0.0631	–
Cc1cc2ccnc(N[C@@H]3CCNC[C@H]3OCCC3CCOCC3)c2[nH]c1=O (racemic)	1.5	–	25.1	≥ 327	–	–	–
Cc1cc2c(-c3cccnc3)cnc(N[C@@H]3CCNC[C@H]3OCC3CCOCC3)c2[nH]c1=O	–	0.251	6.31	≥ 465	< 0.3	0.2	–
Cc1cc2ccnc(N[C@@H]3CCNC[C@H]3OCC3CCOCC3)c2[nH]c1=O (racemic)	1.7	–	10	298 (≈ 111 µg/mL)	–	–	–
CC(=O)N1CCC(CO[C@@H]2CNCC[C@H]2Nc2nccc3cc(C)c(=O)[nH]c23)CC1 (racemic)	1.2	7.94	10	≥ 392	–	–	–
Cc1cc2ccnc(N[C@@H]3CCNC[C@H]3OCC3CCOCC3)c2[nH]c1=O	–	–	–	–	< 1	–	1.5
Cc1cc2ccnc(N[C@H]3CCNC[C@@H]3OCC3CCS(=O)(=O)CC3)c2[nH]c1=O	1.1	–	5.01	≥ 531	–	–	–
Cc1cc2ccnc(N[C@@H]3CCNC[C@H]3OC[C@@H]3CCS(=O)(=O)C3)c2[nH]c1=O (racemic)	1	5.01	12.6	≥ 328	–	–	–
Cc1cc2ccnc(N[C@@H]3CCNC[C@H]3OCC3CCS(=O)(=O)CC3)c2[nH]c1=O (racemic)	1	–	6.31	≥ 309	–	–	–
CO[C@@H]1CNCC[C@H]1Nc1nccc2cc(C)c(=O)[nH]c12	0.9	10	6.31	≥ 306	–	–	–
Cc1cc2ccnc(N[C@@H]3CCNC[C@H]3OCC3CCS(=O)(=O)CC3)c2[nH]c1=O	–	–	12.6	–	< 0.65	–	–
CCCO[C@@H]1CNCC[C@H]1Nc1nccc2cc(C)c(=O)[nH]c12 (racemic)	1.8	25.1	6.31	≥ 280	–	–	–
Cc1cc2c(-c3cncc(N)c3)cnc(N[C@@H]3CCNC[C@H]3OCC3CCCCC3)c2[nH]c1=O	2.2	–	–	494 (≈ 229 µg/mL)	–	–	–
Cc1cc2ccnc(N[C@H]3CCNC[C@@H]3OCC3CCCCC3)c2[nH]c1=O	3.3	–	12.6	140 (≈ 51.9 µg/mL)	–	–	–
Cc1cc2c(-c3cccnc3)cnc(N[C@@H]3CCNC[C@H]3OCC3CCS(=O)(=O)CC3)c2[nH]c1=O	–	0.126	10	≥ 315	< 0.3	0.1	–
Cc1cncc(-c2cnc(N[C@@H]3CCNC[C@H]3OCC3CCOCC3)c3[nH]c(=O)c(C)cc23)c1	–	0.316	10	254 (≈ 118 µg/mL)	3.25	0.251	–
